Data as given in US4450173A, “Compounds and method for treatment or prophylaxis of cardiac disorders” (American Hospital Supply Corporation, priority 1982, dated 1984).
Structures can show the parent of a compound that is named as a salt. Where two headings read alike, the source gives them in different places. Blank lines part the entries; values can stand above or below the molecule they belong to.

Columns and labels:
[1] = biological target: guinea pig tracheal strips (Cavia porcellus, UniProt Q8K4Z4); assay: cell-based; format: cell-based; details: for pA2 Trachea: guinea pig trachea, carbachol tension, isoproterenol, 60 minute incubation, pA2 = -log KB; for Kb: read-out: pA2 Trachea (converted)
Chain of guinea pig tracheal strips (Q8K4Z4 whole entry): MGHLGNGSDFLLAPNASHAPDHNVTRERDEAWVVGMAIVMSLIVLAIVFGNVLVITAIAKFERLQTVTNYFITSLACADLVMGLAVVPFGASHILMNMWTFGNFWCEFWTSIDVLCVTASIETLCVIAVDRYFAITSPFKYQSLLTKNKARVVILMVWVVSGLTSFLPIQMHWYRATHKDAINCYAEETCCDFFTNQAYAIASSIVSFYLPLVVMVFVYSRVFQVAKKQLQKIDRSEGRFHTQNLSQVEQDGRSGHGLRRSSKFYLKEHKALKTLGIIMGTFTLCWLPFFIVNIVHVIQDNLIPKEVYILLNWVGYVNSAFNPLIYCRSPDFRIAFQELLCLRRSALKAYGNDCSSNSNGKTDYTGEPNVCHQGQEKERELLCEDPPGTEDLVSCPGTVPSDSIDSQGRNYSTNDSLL
Experimental: Each tissue was suspended between a fixed glass rod and a Statham® Universal Transducer connected to a Beckman® recorder. Atria were allowed to beat spontaneously under a loading tension of approximately 0.5 gm. Intrinsic depressant for stimulant activity was determined for each compound by progressively increasing concentrations in the tissue baths at 60-minute intervals. Tissues were not washed between increments. […] Changes in rate in response to isoproterenol were measured in the absence and presence of test compounds. Spiral strips of guinea pig trachea were suspended under 5 gm resting tension and incubated with phentolamine, tropolone and cocaine. Active tension was generated by addition of carbachol (3.0×10^-7 M) and decreases in tension in response to isoproterenol were quantitated. Cumulative concentration-response curves were produced with isoproterenol both before and after 60 minute incubation of test compounds with atria and trachea. The blocking potency of test compounds was estimated by computing pA2 values (-log KB) by the method of Furchgott, The Pharmacological Differentiation of Adrenergic Receptors, Ann. […] A ratio greater than one indicates cardioselectivity.

[2] = test system: guinea pig right atria and guinea pig tracheal strips; assay: Cardioselectivity, KB tracheal/KB atrial; format: cell-based
Experimental: Several of the compounds of the present invention were tested for β-blocking activity in vitro using guinea pig right atria and guinea pig tracheal strips mounted in a tissue bath containing oxygenated (95% O2 -5% CO2) Krebs physiological salt solution at 37° C. Each tissue was suspended between a fixed glass rod and a Statham® Universal Transducer connected to a Beckman® recorder. Atria were allowed to beat spontaneously under a loading tension of approximately 0.5 gm. Intrinsic depressant for stimulant activity was determined for each compound by progressively increasing concentrations in the tissue baths at 60-minute intervals. Tissues were not washed between increments. […]. Changes in rate in response to isoproterenol were measured in the absence and presence of test compounds. Spiral strips of guinea pig trachea were suspended under 5 gm resting tension and incubated with phentolamine, tropolone and cocaine. Active tension was generated by addition of carbachol (3.0×10^-7 M) and decreases in tension in response to isoproterenol were quantitated. Cumulative concentration-response curves were produced with isoproterenol both before and after 60 minute incubation of test compounds with atria and trachea. The blocking potency of test compounds was estimated by computing pA2 values (-log KB) by the method of Furchgott, The Pharmacological Differentiation of Adrenergic Receptors, Ann. N.Y. Acad. Sci.; 139: 553-570 (1967). Comparison of blockade of right atrial and tracheal responses to isoproterenol permitted assessment of cardioselectivity of test compounds; […]. A ratio greater than one indicates cardioselectivity. […]

[3] = test system: heart rate response to isoproterenol; assay: Duration of β-blockade in vivo in anesthetized dogs, 3-hour infusion; parameters: species or system dog; details: for ED50: Canis lupus familiaris, iv, 3-hour infusion, read-out: Potency (mg/kg/180 min); for ED50 / % I (Percent inhibition of heart rate response to isoproterenol): bolus isoproterenol 0.4 μg/kg; for 80% Recovery Time: after 3-hour infusion; for % I (Percent inhibition of heart rate response to isoproterenol): end of 3-hour infusion
Experimental: (§1) The duration of β-blockade was determined in vivo using pentobartital-anesthetized dogs instrumented for measurement of heart rate using a Beckman® cardiotachometer triggered electronically by a phasic aortic blood pressure signal. Both vagus nerves were severed in the cervical region and the animals were mechanically ventilated. Two experimental designs were used. The first employed a 40-minute infusion of test compound and the second used a 3-hour infusion of test compound. In the 40-minute model, isoproterenol was infused into a foreleg vein at the rate of 0.5 μg/kg/min to induce a β-receptor mediated tachycardia. Various doses of test compound are then infused into a femoral vein over a period of 40 minutes. This infusion was then terminated and recovery from blockade was quantitated. […] This cumulative dose is expressed as mg/kg and is an indication of potency. The time period required for 80% recovery of heart rate response for each dose of test drug was also measured to quantitate duration of action. […] Test compounds were dissolved in 0.9% NaCl and infused at a rate of 0.05 mL/kg/min or less. In the 3-hour infusion model, bolus doses of isoproterenol (0.4 μg/kg) were used to assess the degree of β-blockade and recovery from β-blockade after termination of the infusion. The doses were spaced at 10-minute intervals and were given before, during and following the infusion of test compounds. The infusion rate was adjusted so that at the end of the 3-hour infusion period the degree of isoproterenol inhibition averaged about 50% of control.

[4] = Disappearance in vitro in human whole blood; format: in vitro ADME; details: 50 μg in 1 mL added to 1 mL human whole blood, 37° C.; read-out: T1/2 Human Whole Blood
Experimental: (§2) The rate of disappearance of a compound is expressed as the half-life (T1/2), which is the time period in which one-half of the initial amount of compound tested disappears. In each experiment, 1 mL of a solution containing 50 μg of the test compound was added to 1 mL of whole blood or 1 mL of a 33% (w/v) liver homogenate. […] At the designated time periods, the test mixtures were removed from the incubator and transferred to a 0° C. ice bath. Acetonitrile (2 mL) was immediately added and the mixtures were mixed to stop enzymatic hydrolysis. Zero time samples were prepared by adding 2 mL of acetonrile to denature the proteins prior to addition of the test compounds. […] The half life of each test compound was determined graphically by plotting the decrease in concentration as a function of time.

[5] = Disappearance in vitro in dog whole blood; format: in vitro ADME; details: 50 μg in 1 mL added to 1 mL dog whole blood, 37° C.; read-out: T1/2 Dog Whole Blood
Experimental: as §2

[6] = Disappearance in vitro in dog liver homogenate; format: in vitro ADME; details: 50 μg in 1 mL added to 1 mL of 33% (w/v) dog liver homogenate, 37° C.; read-out: T1/2 Dog Liver Homogenate
Experimental: as §2

[7] = test system: heart rate response to isoproterenol (β-receptor mediated tachycardia); assay: Duration of β-blockade in vivo in anesthetized dogs, 40-minute infusion; parameters: species or system dog; details: for 80% Recovery Time: after 40-minute infusion, normalized to 50% inhibition; for ED50: Canis lupus familiaris, iv, 40 min, read-out: Potency (mg/kg/40 min)
Experimental: as §1

guinea pig right atria = guinea pig right atria (Cavia porcellus, UniProt H0W3H1); assay: β-blocking activity in vitro, guinea pig right atria (rate response to isoproterenol); format: cell-based; details: for pA2 Atria: guinea pig right atria, isoproterenol, 60 minute incubation, pA2 = -log KB
Chain of guinea pig right atria (H0W3H1 1-470): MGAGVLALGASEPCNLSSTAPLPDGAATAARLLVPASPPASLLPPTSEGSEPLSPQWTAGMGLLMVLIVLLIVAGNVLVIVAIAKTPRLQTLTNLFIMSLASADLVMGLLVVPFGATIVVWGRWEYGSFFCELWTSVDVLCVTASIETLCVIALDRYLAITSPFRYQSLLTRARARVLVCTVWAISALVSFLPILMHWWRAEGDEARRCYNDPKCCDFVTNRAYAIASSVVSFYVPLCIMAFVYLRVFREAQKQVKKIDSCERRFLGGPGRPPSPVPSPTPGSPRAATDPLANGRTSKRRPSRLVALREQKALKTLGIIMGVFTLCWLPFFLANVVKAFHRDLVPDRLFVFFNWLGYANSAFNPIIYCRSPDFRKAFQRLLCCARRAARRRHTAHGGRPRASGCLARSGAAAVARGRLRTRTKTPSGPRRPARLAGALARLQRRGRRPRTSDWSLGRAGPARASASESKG
Experimental: Each tissue was suspended between a fixed glass rod and a Statham® Universal Transducer connected to a Beckman® recorder. Atria were allowed to beat spontaneously under a loading tension of approximately 0.5 gm. Intrinsic depressant for stimulant activity was determined for each compound by progressively increasing concentrations in the tissue baths at 60-minute intervals. Tissues were not washed between increments. The maximum concentration showing little or no cardiodepressant activity was chosen for blockade experiments. Changes in rate in response to isoproterenol were measured in the absence and presence of test compounds. Spiral strips of guinea pig trachea were suspended under 5 gm resting tension and incubated with phentolamine, tropolone and cocaine. Active tension was generated by addition of carbachol (3.0×10^-7 M) and decreases in tension in response to isoproterenol were quantitated. Cumulative concentration-response curves were produced with isoproterenol both before and after 60 minute incubation of test compounds with atria and trachea. The blocking potency of test compounds was estimated by computing pA2 values (-log KB) by the method of Furchgott, The Pharmacological Differentiation of Adrenergic Receptors, Ann. […] The degree of cardioselectivity was estimated from the ratio, KB tracheal/KB atrial (10^(pA.sbsp.2^atria-pA.sbsp.2^trachea)). A ratio greater than one indicates cardioselectivity. Test drugs were dissolved in distilled water and added to the bath (30 mL) in a volume of 10 or 100 μL.

[8] = ratio KB tracheal/KB atrial, greater than one indicates cardioselectivity
[9] = read-out: pA2 Atria (converted)

pA2 Trachea [1]: 7.0 | half-life [4]: 2.47 ± 0.0333 h | half-life [5]: 0.867 ± 0.15 h | half-life [6]: 9 ± 8 min
SMILES: COC(=O)CCNCC(O)COc1ccccc1C (stereo not shown) [XVII]
Cardioselectivity [2]: 1.6 | ED50 [3]: 4.4 mg/kg | 80% Recovery Time [3]: 27 ± 4 min | % I (Percent inhibition of heart rate response to isoproterenol) [3]: 56 ± 4%

pA2 Trachea [1]: 5.6
SMILES: CCOC(=O)CNCC(O)COc1ccccc1 (stereo not shown) [Example I, Ethyl N-(2-Hydroxy-3-phenoxypropyl) glycinate Oxalate]
Cardioselectivity [2, 8]: 1 | Potency (mg/kg/40 min) ([7]; cumulative dose over 40-minute infusion, normalized to 50% inhibition of isoproterenol response, dogs): very low

SMILES: CCOC(=O)CNCC(O)COc1cccc2ccccc12 (stereo not shown) [Example II, Ethyl N-[[2-Hydroxy-3-(1-naphthoxy]propyl]glycinate Oxalate Hemihydrate]
80% Recovery Time ([7]; dogs): 53 ± 11 min

pA2 Trachea [1]: 6.7 | half-life [4]: 1.95 ± 0.65 h | half-life [5]: > 3 h
SMILES: CCOC(=O)CCCNCC(O)COc1ccccc1C (stereo not shown) [XI]
Cardioselectivity [2, 8]: 5 | ED50 [7]: 3.1 ± 0.7 mg/kg | 80% Recovery Time ([7]; dogs): 15 ± 2 min

Kb (guinea pig right atria; [9]): 2000 nM
SMILES: Cc1ccccc1OCC(O)CNCCC(=O)Oc1ccc(F)cc1 (stereo not shown) [XIX]

pA2 Trachea [1]: 5.9
SMILES: CCOC(=O)CCNCC(O)COc1ccccc1 (stereo not shown) [Example III, Ethyl 3-[N-[2-Hydroxy-3-phenoxy)propyl]amino]propionate Oxalate]
Cardioselectivity [2, 8]: 25 | ED50 [7]: 12.6 ± 4.1 mg/kg | 80% Recovery Time ([7]; dogs): 29 ± 13 min

Kb [1]: 25.1 nM
SMILES: COC(=O)CCNCC(O)COc1cccc2ccccc12 (stereo not shown) [XXIX]
Cardioselectivity [2, 8]: 0.3

pA2 Trachea [1]: 6.7
SMILES: CCOC(=O)CCNCC(O)COc1cccc(OC)c1 (stereo not shown) [XXIV]
Cardioselectivity [2, 8]: .5

SMILES: CC(C)NCC(O)COc1cccc2ccccc12 (stereo not shown) [Propranolol, reference compound]
80% Recovery Time ([7]; dogs): 46 min

pA2 Trachea [1]: 6.0
SMILES: CCOC(=O)CCCNCC(O)COc1ccccc1 (stereo not shown) [Example IV]

Kb (guinea pig right atria; [9]): 251 nM | pA2 Trachea [1]: 6.6
SMILES: CCOC(=O)CCNCC(O)COc1ccccc1C(=O)OC (stereo not shown) [VIII, Ethyl 3-[N-[2-Hydroxy-3-[2-(methoxycarbonyl)phenoxy]propyl]amino]propionateOxalate Hemihydrate]
Cardioselectivity [2]: 1.0 | ED50 [3]: 27.4 ± 6 mg/kg | 80% Recovery Time [3]: 10 ± 2 min | % I (Percent inhibition of heart rate response to isoproterenol) [3]: 53 ± 2%

SMILES: CC(=O)Nc1ccc(OCC(O)CNC(C)C)cc1 (stereo not shown) [Practolol, reference compound]
Kb (guinea pig right atria): […] | 80% Recovery Time ([7]; dogs): 61 min

Kb (guinea pig right atria; [9]): 1260 nM | Kb [1]: > 10000 nM
SMILES: CCOC(=O)CCNCC(O)COc1ccc(CCC(=O)OC)cc1.Cl (stereo not shown) [Example VII, Ethyl 3-[N-[2-Hydroxy-3-[4-[2-(methoxycarbonyl)ethyl]phenoxy]propyl]amino]propionate Hydrochloride]
Cardioselectivity [2, 8]: > 8

pA2 Trachea [1]: 6.5
SMILES: CCOC(=O)CCNCC(O)COc1cccc(C)c1 (stereo not shown) [XXIII]
Cardioselectivity [2, 8]: 1.6

pA2 Atria (guinea pig right atria): 7.0 | pA2 Trachea [1]: 6.6
SMILES: COc1ccc(CCOC(=O)CCNCC(O)COc2ccccc2C)cc1OC (stereo not shown) [XXVIII]
Cardioselectivity [2]: 2.5 | ED50 [3]: 168 mg/kg | 80% Recovery Time [3]: > 60 min | % I (Percent inhibition of heart rate response to isoproterenol) [3]: 85%

Kb [1]: 1260 nM | half-life [4]: > 3 h | half-life [5]: > 3 h | half-life [6]: 9 ± 6 min
SMILES: CCOC(=O)c1ccc(CNCC(O)COc2ccccc2C)cc1 (stereo not shown) [XV]
Cardioselectivity [2]: 5

Kb (guinea pig right atria; [9]): 398 nM
SMILES: Cc1ccccc1OCC(O)CNCCC(=O)Oc1ccccc1 (stereo not shown) [XVIII]
ED50 [3]: 54 ± 14 mg/kg | 80% Recovery Time [3]: > 60 min | % I (Percent inhibition of heart rate response to isoproterenol) [3]: 54 ± 8%

pA2 Trachea [1]: 6.6 | half-life [4]: 2.12 ± 0.833 h | half-life [5]: 1.23 ± 0.35 h | half-life [6]: 4 ± 3 min
SMILES: CCOC(=O)CCNCC(O)COc1ccccc1Cl (stereo not shown) [XXI]
Cardioselectivity [2, 8]: 6 | ED50 [3]: 10.9 mg/kg | 80% Recovery Time [3]: > 60 min | % I (Percent inhibition of heart rate response to isoproterenol) [3]: 77%

pA2 Trachea [1]: 6.7 | half-life [4]: 1.97 ± 0.433 h | half-life [5]: 0.667 ± 0.25 h | half-life [6]: 3 ± 3 min
SMILES: CCOC(=O)CCNCC(O)COc1cccc(Cl)c1 (stereo not shown) [XXII]
Cardioselectivity [2, 8]: 5 | ED50 [3]: 8.5 mg/kg | 80% Recovery Time [3]: > 60 min | % I (Percent inhibition of heart rate response to isoproterenol) [3]: 77%

pA2 Atria (guinea pig right atria): inactive | pA2 Trachea [1]: inactive
SMILES: CCOC(=O)C(Cc1ccc(O)cc1)NCC(O)COc1ccccc1 (stereo not shown) [Example V, Ethyl N[(2-Hydroxy-3-phenoxy)propyl]tyrosinate]

Kb (guinea pig right atria; [9]): 2000 nM
SMILES: Cc1ccccc1OCC(O)CNCCC(=O)OCC(F)(F)F (stereo not shown) [XX]

pA2 Trachea [1]: 6.2
SMILES: CCOC(=O)CNCC(O)COc1ccccc1C (stereo not shown) [XXVII]
Cardioselectivity [2, 8]: 0.5

Kb (guinea pig right atria; [9]): 794 nM
SMILES: CCOC(=O)CCNCC(O)COc1c(C)cccc1C (stereo not shown) [XXVI]

pA2 Trachea [1]: 5.6
SMILES: CCOC(=O)CCNCC(O)COc1ccc(Cl)cc1 (stereo not shown) [Example VI, Ethyl 3[N-[3-[4-(chlorophenoxy)-2-hydroxy]propyl]amino]propionate Hydrochloride]
Cardioselectivity [2, 8]: 6

Kb [1]: 200 nM
SMILES: COC(=O)c1ccc(CNCC(O)COc2ccccc2C)cc1 (stereo not shown) [XVI]
Cardioselectivity [2, 8]: 1.6

half-life [4]: 2.63 ± 0.133 h | half-life [5]: > 3 h | half-life [6]: 4 ± 2.5 min
SMILES: CCOC(=O)CCNCC(O)COc1ccc(OC)cc1 (stereo not shown) [XXV]
ED50 [7]: 17.2 ± 1.2 mg/kg | 80% Recovery Time ([7]; dogs): 11 ± 2 min
